Measured values as given in patent publication US5462926A (Biomeasure, Inc., priority 1993, dated 1995).
Read-outs that look alike come from different tables or passages of the source. Where a SMILES comes first, the peptide text is derived from it. Bridges are numbered along the chain shown (N, C = ends). [ ]: non-standard residue; d: D form. 2Nal = N[C@@H](Cc1ccc2ccccc2c1)C(=O)O; d2Nal = N[C@H](Cc1ccc2ccccc2c1)C(=O)O

Key:
GRP receptor = GRP receptor (Rattus norvegicus, UniProt P52500); assay: Amylase release from rat pancreatic acini (alone or Bn-stimulated); assay type: cell-based; design: from tissue; host or cells: dispersed pancreatic acini; settings: for Amylase Release, analog Alone (10 μM): analog 10 μM alone, control 4 ± 1; for Amylase Release, analog Plus Bn (0.3 nM): analog 10 μM plus Bn 0.3 nM, Bn without analog 15 ± 1; for IC50: read-out: IC50 Amylase Release, GRP Receptor, Rat Pancreatic Acini
Sequence of GRP receptor (P52500 whole entry): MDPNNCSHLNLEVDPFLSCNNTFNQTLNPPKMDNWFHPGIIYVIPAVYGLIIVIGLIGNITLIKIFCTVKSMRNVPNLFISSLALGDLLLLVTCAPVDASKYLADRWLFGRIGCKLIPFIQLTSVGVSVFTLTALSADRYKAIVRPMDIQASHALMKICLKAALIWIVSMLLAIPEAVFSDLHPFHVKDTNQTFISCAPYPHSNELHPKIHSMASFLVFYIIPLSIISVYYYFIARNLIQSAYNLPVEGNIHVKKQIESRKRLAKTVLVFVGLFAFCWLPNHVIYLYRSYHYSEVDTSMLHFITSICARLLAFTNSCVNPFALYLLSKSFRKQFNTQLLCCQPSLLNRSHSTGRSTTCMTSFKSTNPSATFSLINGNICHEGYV
Description: pancreatic acini or [^3 H]myo[2H]inositolloaded NMBR transfected cell
were incubated either with no additives, the somatostatin octapeptide
analog, Bn, or NMB, or a combination for 30 min at 37° C.. Amylase
release from pancreatic acini was expressed at the indicated percent of
the total cellular amylase released during the incubation. [^3 H]IP i
expressed in dpm's. To test for inhibitory effects, the effect of
somatostatin analog (10 μM) was determined on 0.3 nM Bnstimulated

[1] = molecular target: T1, GRP receptors on rat pancreatic acini (Rattus norvegicus, UniProt P52500); assay: Binding of 125I-[Tyr4]bombesin to pancreatic acini; settings: read-out: Ki 125I-[Tyr4]Bn Binding, GRP Receptor, Rat Pancreatic Acini; Ki by Cheng method
T1 construct: from tissue; host or cells: dispersed pancreatic acini
T1 sequence (P52500 whole entry): as above
Description: Nonsaturable binding was<10% of total binding in all experiments.

somatostatin receptors = molecular target: T2, somatostatin receptors (Rattus norvegicus, UniProt P30680); assay: Somatostatin membrane receptor assay, 125I-[Tyr11]SS-14, AR 42J cell membranes; assay type: binding; settings: Cheng method; table prints no unit (b360 gives nM for a Table 4 value); read-out: affinity, 125I-[Tyr11]SS-14, AR 42J Cell Membranes (somatostatin receptors)
T2 construct: endogenous in cells; host or cells: rat AR 42J pancreatic acinar tumor cell membranes
T2 sequence (P30680 whole entry): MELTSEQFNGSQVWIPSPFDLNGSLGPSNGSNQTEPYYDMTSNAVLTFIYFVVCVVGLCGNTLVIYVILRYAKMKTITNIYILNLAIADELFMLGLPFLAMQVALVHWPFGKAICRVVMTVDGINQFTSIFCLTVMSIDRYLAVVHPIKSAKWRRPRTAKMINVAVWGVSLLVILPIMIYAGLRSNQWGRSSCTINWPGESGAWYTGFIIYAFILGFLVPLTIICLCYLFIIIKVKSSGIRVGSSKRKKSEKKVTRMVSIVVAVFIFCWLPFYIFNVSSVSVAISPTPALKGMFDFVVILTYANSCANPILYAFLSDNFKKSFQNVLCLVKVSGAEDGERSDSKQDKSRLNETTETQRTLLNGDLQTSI

mu opioid receptors = molecular target: T3, mu opioid receptors (Rattus norvegicus, UniProt P33535); assay: Mu opioid membrane assay, [3H]DAGO, rat forebrain membranes; assay type: binding
T3 construct: rat forebrain (TRH, mu and delta opioid membrane assays); from tissue; host or cells: rat forebrain membranes
T3 sequence (P33535 whole entry): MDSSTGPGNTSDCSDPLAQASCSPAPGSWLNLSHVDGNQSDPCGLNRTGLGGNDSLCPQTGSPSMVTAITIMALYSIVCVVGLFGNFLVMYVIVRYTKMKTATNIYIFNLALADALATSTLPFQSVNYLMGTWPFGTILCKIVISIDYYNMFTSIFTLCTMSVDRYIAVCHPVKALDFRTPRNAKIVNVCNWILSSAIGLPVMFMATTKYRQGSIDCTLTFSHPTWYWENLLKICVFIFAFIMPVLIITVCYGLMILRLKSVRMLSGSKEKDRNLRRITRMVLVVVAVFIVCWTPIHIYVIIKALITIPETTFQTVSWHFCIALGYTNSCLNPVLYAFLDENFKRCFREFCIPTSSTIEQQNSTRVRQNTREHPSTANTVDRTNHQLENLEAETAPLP

[2] = molecular target: T4, NMB receptors on C-6 cells (Rattus norvegicus, UniProt P24053); assay: Binding of 125I-[D-Tyr0]NMB to C-6 glioblastoma cells; settings: for Ki: Ki by Cheng method, read-out: Ki 125I-NMB Binding, NMB Receptor, C-6 Cells
T4 construct: endogenous in cells; host or cells: rat glioblastoma C-6 cells
T4 sequence (P24053 1-390): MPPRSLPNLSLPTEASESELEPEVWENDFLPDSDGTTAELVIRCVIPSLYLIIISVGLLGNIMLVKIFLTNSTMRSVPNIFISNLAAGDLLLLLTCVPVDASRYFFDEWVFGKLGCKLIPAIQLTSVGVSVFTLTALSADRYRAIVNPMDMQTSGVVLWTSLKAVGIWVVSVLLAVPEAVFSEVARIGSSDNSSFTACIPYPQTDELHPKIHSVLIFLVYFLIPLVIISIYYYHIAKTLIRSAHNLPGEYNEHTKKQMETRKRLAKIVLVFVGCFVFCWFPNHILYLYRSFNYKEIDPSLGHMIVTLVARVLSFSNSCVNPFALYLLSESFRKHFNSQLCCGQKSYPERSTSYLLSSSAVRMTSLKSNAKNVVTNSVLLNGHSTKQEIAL
Description: Binding of ^125 I-[D-Tyr^0 ]NMB to C-6 glioblastoma and NMB-R transfected cells
Binding studies using rat glioblastoma C-6 or NMB-R transfected cells were performed as described previously [Benya, R. V. et al. Mol. Pharmacol. 42:1058 (1992); and Wang, L-H. et al. Biochem. J. 286:641 (1992)] by suspending disaggregated cells in binding buffer, which was composed of standing buffer ([…], 7.7 mM KCl, 1.0 mM EGTA, 0.02% soybean trypsin inhibitor) additionally containing 50 mM HEPES, 1 mM MgCl2, 1.5 mM CaCl2, 2.2 mM KH2 PO4, 0,015% glutamine, and 0.2% BSA (w/v) (pH 7.4). Incubations contained 75 pM ^125 I-[D-Tyr^0 ]NMB and 15×10^6 C-6 cells/ml or 2×10^6 NMB-R transfected cells/ml, for 60 min at 22° C. Nonsaturable binding of ^125 I-[D-Tyr^0 ]NMB was the amount of radioactivity associated with C-6 cells or NMB-R transfected cells when the incubation mixture contained […] NMB. Nonsaturable binding was<15% of total binding in all experiments; all values are reported herein as saturable binding (i.e., total minus nonsaturable binding).

NMB receptor = molecular target: T5, NMB receptor (Rattus norvegicus, UniProt P24053); assay: [3H]inositol phosphates in NMB-R transfected cells (alone or NMB-stimulated); assay type: cell-based; design: a full length NMB-preferring bombesin receptor clone generated from rat esophagus; expressed in transfected cells; settings: NMB-R transfected cells; for [3H]IP, analog Alone (10 μM): analog 10 μM alone, control 13 ± 3; for [3H]IP, analog Plus NMB (3 nM): analog 10 μM plus NMB 3 nM, NMB without analog 186 ± 58
T5 sequence (P24053 1-390): T4 sequence (P24053 1-390)
Description: As described previously [Wada, E., et al. Neuron 6:421 (1991)], BALB 3T3 cells expressing a stably transfected rat NMB receptor (NMB-R transfected cells) were obtained using calcium phosphate precipitation of a full length NMB-preferring bombesin receptor clone generated from rat esophagus and subcloned into a modified version of the pCD2 plasmid. Cells were passaged every 3-4 days at confluence, using 0.1% trypsin in 1 mM EDTA. Rat glioblastoma C-6 tumor cells were maintained similarly and were passaged weekly at confluence. Both cell lines were cultured at 37° C. in a 5% CO2 atmosphere. Rat AR 42J pancreatic acinar cells were cultured in Dulbecco's modified Eagle's medium (DMEM) without antibiotics and supplemented with 10% (vol/vol) fetal calf serum. The incubation atmosphere consisted of 10% CO2 -90% humidified air at 37° C.
Measurement of phosphoinositides
Total phosphoinositides in C-6 cells and in NMB-R transfected cells were determined as described previously, with minor modifications [Benya, R. V. et al. Mol. Pharmacol. 42:1058 (1992); and Wang, L-H. et al. Biochem. Jo 286:641 (1992)]. Cells were grown to confluence in 24-well plates and then loaded with 100 μCi/ml myo-[2-^3 H]inositol in Dulbecco's modified essential medium with 2% fetal bovine serum at 37° C. for 48 hrs. Cells were washed and incubated in phosphoinositide buffer (standard buffer additionally containing 10 mM LiCl, 20 mM HEPES, 2 mM CaCl2, 2% BSA, and 1.2 mM MgSO4) for 15 min and then for 60 min at 37° C. with agonists at various concentrations or with 3 nM NMB (a half-maximal effective concentration) and possible antagonists at different concentrations. Reactions were halted using ice-cold 1% HCl in methanol, and the inositol phosphates (IP) were isolated as described previously [Bologna, M. et al. Cancer 63:1714 (1989); and Endo, T. et al. J. Endocrinolo 131:313 (1991)]. Briefly, after loading of the anion exchange column, free [^3 H]glycerophosphorylinositol was removed by washing with 5 mM disodium tetraborate in 60 mM sodium formate. Total [^3 H]inositol phosphates were then eluted using 100 mM formic acid in 1.0M ammonium formate as described previously [Benya, R. V. et al. Mol. Pharmacol. 42:1058 (1992); and Wang, L-H. et al. Biochem. J. 286:641 (1992 )].

[3] = 3 nM NMB, read-out: IC50 NMB-stimulated [3H]IP, NMB Receptor, Transfected Cells
[4] = Cheng method, unit inferred, read-out: affinity, [3H]DAGO, Rat Forebrain membranes (mu opioid receptors)

SMILES | effect on Bn-stimulated amylase release (GRP receptor; 0.3 nM Bn) | Amylase Release, analog Alone (10 μM) (GRP receptor) | Amylase Release, analog Plus Bn (0.3 nM) (GRP receptor) | IC50 (GRP receptor) | Ki [1] | Ki (somatostatin receptors) | Ki (mu opioid receptors; rat forebrain membranes, read-out: affinity, inhibition of [3H]DAGO binding to mu opioid receptors) | Ki [2] | Kd ([2]; read-out: Kd, inhibition of 125I-[D-Tyr0]NMB binding, glioblastoma C-6 cells) | concentration causing detectible inhibition of NMB-stimulated [3H]IP (NMB receptor) | IC50 (NMB receptor; [3]) | effect at 10 μM on NMB-stimulated increase in [3H]IP (NMB receptor; 10 μM, 3 nM NMB) | [3H]IP, analog Alone (10 μM) (NMB receptor) | [3H]IP, analog Plus NMB (3 nM) (NMB receptor) | slope of Schild regression (NMB receptor; not significantly different from unity) | Ki (mu opioid receptors; [4]) | IC50 (NMB receptor; 3 nM NMB, read-out: IC50 NMB-stimulated [3H]IP, Transfected Cells (values in μM))
CC(C)[C@@H]1NC(=O)[C@H](CCCCN)NC(=O)[C@@H](Cc2c[nH]c3ccccc23)NC(=O)[C@H](Cc2ccc(O)cc2)NC(=O)[C@@H](NC(=O)[C@H](N)Cc2ccc3ccccc3c2)CSSC[C@@H](C(=O)N[C@@H](Cc2ccc3ccccc3c2)C(N)=O)NC1=O [Analog #1, H2 -D-Nal-Cys-Tyr-D-Trp-Lys-Val-Cys-Nal-NH2] (H-[d2Nal]CY[dW]KVC[2Nal]-NH2; disulfide 2-7) | did not inhibit | 5 ± 1 % total | 15 ± 2 % total | > 10 µM | 18.3 ± 2.11 µM | 0.8 ± 0.5 nM | 430 ± 130 nM | 59 ± 9 nM | 59 nM | 0.3 µM | 0.895 ± 0.098 µM | completely inhibited | 12 ± 2 dym × 10^3 | 8 ± 4 dym × 10^3 | 1.1(+0.2) | – | –
C[C@@H](O)[C@H](NC(=O)[C@@H]1CSSC[C@H](NC(=O)[C@H](N)Cc2ccc3ccccc3c2)C(=O)N[C@@H](Cc2ccc(O)cc2)C(=O)N[C@H](Cc2c[nH]c3ccccc23)C(=O)N[C@@H](CCCCN)C(=O)N[C@@H](Cc2ccc3ccccc3c2)C(=O)N1)C(N)=O [Analog #2, H2 -D-Nal-Cys-Tyr-D-Trp-Lys-Nal-Cys-Thr-NH2] | – | 5 ± 1 % total | 13 ± 1 % total | > 10 µM | 16.3 ± 3.82 µM | 0.5 ± 0.1 nM | – | 226 ± 36 nM | – | – | 6.67 ± 0.435 µM | – | 11 ± 2 dym × 10^3 | 39 ± 7 dym × 10^3 | – | 1.9 ± 0.7 nM | –
CC(C)[C@@H]1NC(=O)[C@H](CCCCN)NC(=O)[C@@H](Cc2c[nH]c3ccccc23)NC(=O)[C@H](Cc2ccc(O)cc2)NC(=O)[C@@H](NC(=O)[C@H](N)Cc2ccccc2)CSSC[C@@H](C(=O)N[C@@H](Cc2ccc3ccccc3c2)C(N)=O)NC1=O [Analog #4, H2 -D-Phe-Cys-Tyr-D-Trp-Lys-Val-Cys-Nal-NH2] (H-[dF]CY[dW]KVC[2Nal]-NH2; disulfide 2-7) | – | 4 ± 2 % total | 14 ± 1 % total | > 10 µM | 21.9 ± 4.26 µM | 0.24 ± 0.13 nM | – | 848 ± 191 nM | – | – | 3.76 ± 0.568 µM | – | 13 ± 1 dym × 10^3 | 33 ± 4 dym × 10^3 | – | 650 ± 130 nM | –
C[C@@H](O)[C@@H]1NC(=O)[C@H](CCCCN)NC(=O)[C@@H](Cc2c[nH]c3ccccc23)NC(=O)[C@H](Cc2ccc(O)cc2)NC(=O)[C@@H](NC(=O)[C@H](N)Cc2ccccc2)CSSC[C@@H](C(=O)N[C@@H](Cc2ccc3ccccc3c2)C(N)=O)NC1=O [Analog #7, H2 -D-phe-Cys-Tyr-D-Trp-Lys-Thr-Cys-Nal-NH2] (H-[dF]CY[dW]KTC[2Nal]-NH2; disulfide 2-7) | – | 3 ± 1 % total | 16 ± 1 % total | > 10 µM | 31 ± 4.65 µM | 0.86 ± 0.23 nM | – | 1450 ± 78 nM | – | – | 36.2 ± 4.97 µM | – | 15 ± 1 dym × 10^3 | 99 ± 24 dym × 10^3 | – | 200 nM | > 10 µM
CC(C)[C@@H]1NC(=O)[C@H](CCCCN)NC(=O)[C@@H](Cc2c[nH]c3ccccc23)NC(=O)[C@H](Cc2ccc(O)cc2)NC(=O)[C@@H](NC(=O)[C@H](N)Cc2ccc3ccccc3c2)CSSC[C@@H](C(=O)N[C@H](Cc2ccc3ccccc3c2)C(N)=O)NC1=O [Analog #8, H2 -D-Nal-Cys-Tyr-D-Trp-Lys-Val-Cys-D-Nal-NH2] (H-[d2Nal]CY[dW]KVC[d2Nal]-NH2; disulfide 2-7) | – | 2 ± 1 % total | 14 ± 1 % total | > 10 µM | > 10 µM | 3.9 ± 0.1 nM | – | 670 ± 73 nM | – | – | 5.19 ± 0.987 µM | – | 10 ± 3 dym × 10^3 | 67 ± 13 dym × 10^3 | – | 280 nM | –
CC(C)[C@@H]1NC(=O)[C@H](CCCCN)NC(=O)[C@@H](Cc2c[nH]c3ccccc23)NC(=O)[C@H](Cc2ccc(O)cc2)NC(=O)[C@@H](NC(=O)[C@@H](N)Cc2ccc3ccccc3c2)CSSC[C@@H](C(=O)N[C@H](Cc2ccc3ccccc3c2)C(N)=O)NC1=O [Analog #9, H2 -Nal-Cys-Tyr-D-Trp-Lys-Val-Cys-D-Nal-NH2] (H-[2Nal]CY[dW]KVC[d2Nal]-NH2; disulfide 2-7) | – | 3 ± 1 % total | 16 ± 1 % total | > 10 µM | > 10 µM | 2.8 ± 0.7 nM | – | 1160 ± 214 nM | – | – | 4.41 ± 0.451 µM | – | 8 ± 2 dym × 10^3 | 28 ± 6 dym × 10^3 | – | 1160 nM | –
